The target in test [1] is μ receptor. The test can be described thus: In vitro receptor binding, μ receptor, radioligand DAGO. Further details: species or system guinea-pig or rat. To be noted: forebrain membranes, 25° C., 60 min. The method, then:
(§1) The following procedure was used to determine the ability of various opioid peptides to inhibit binding at opioid receptors. Crude membranes were prepared by homogenization of guinea-pig or rat forebrain samples in 20 ml of ice-cold 50 mM Tris-HCl with a Brinkman Polytron (setting 6, 15 sec.). Buffer was added to obtain a final volume of 40 ml, and the homogenate centrifuged in a Sorval SS-34 rotor at 39,000 g for 10 min. at 0°-4° C. The resulting supernatant was decanted and discarded. The pellet was rehomogenized in ice-cold buffer, pre-incubated at 37° C. for 45 min., diluted, and centrifuged as before. The final pellet was resuspended in 50 mM Tris HCl and held on ice for the receptor binding assay.
(§2) Aliquots of the washed membrane preparation (described above) were incubated in 50 mM Tris HCl at a total volume of 2.0 ml at 25° C. with an opioid receptor ligand (see below) and various concentrations of the unlabeled test compounds. Mu and kappa receptor assays were incubated for 60 minutes. […] At the end of the incubation periods, the assays were terminated by rapid filtration though Whatman GF/B glass fiber filters, and the bound radioactivity trapped on the filters counted by liquid scintillation spectrometry. For each of the three receptor subtypes, specific binding was calculated as the total radioligand bound minus that bound in the presence of 1000 nM levallorphan. […]

Test [2] addresses δ receptor. The test is described as follows: In vitro receptor binding, δ receptor, radioligand DPPE. Further details: species or system guinea-pig or rat. The note with it: forebrain membranes, 25° C., 40 min. How it is done: as §1, §2
Test [3] addresses κ receptor. The test can be described thus: In vitro receptor binding, κ receptor, radioligand U69,593. The arrangement: species or system guinea-pig or rat. The note with it: forebrain membranes, 25° C., 60 min. How it is done:
as §1, §2

The subject of test [4] is Human NSLC A549. The test can be described thus: Subcutaneous tumor assay, human non-small cell lung cancer A549 xenografts. It counts as in vivo, athymic nude mice. How it is done: Table 5 compares the antitumor activity of an opioid BIM-38009 versus methadone. A subcutaneous tumor assay was used in which xenografts of the human non-small cell lung cancer were implanted s.c. in athymic nude mice. Test compounds were administered s.c. or i.p., twice daily, from day 4 post tumor implantation to day 35. The results are reported as means±s.e.m. on 8 animals per group. For structure of BIM-38009, see above.
(Xenograft models place foreign cells or tissue in a host animal.)

Turning to `C[C@@H](NC(=O)[C@@H](N)Cc1ccc(O)cc1)C(=O)NCC(=O)N[C@@H](CCc1ccccc1)C(N)=O` [BIM-38046, tyrosyl-D-alanyl-glycyl-homophenylalanine amide], the Ki in test [1] is 0.00292 ± 0.00112 µM; in test [2], 0.0727 µM; in test [3], 0.849 µM.
Turning to `CCC(=O)C(CC(C)N(C)C)(c1ccccc1)c1ccccc1` (centres unmarked) [Methadone], the “Tumor Weight (mg) (Day 34)” value in test [4] (A549 xenograft s.c., treatment days 4-35, mean ± s.e.m., 8 animals per group) stood at 337 ± 57 mg. Also, the “& T/C” value in test [4] (A549 xenograft, tumor weight Day 34, treated versus control) amounted to 110.

What is called Ki is a measure of affinity in units of concentration, obtained from inhibition or displacement. Read a high Ki as weaker binding.

Source of the values: US5663295A, “Opioid peptides” (Biomeasure Inc., priority 1994, dated 1997).
